Measured values published in article PMC6470533, “Structure–Activity Study, Characterization, and Mechanism of Action of an Antimicrobial Peptoid D2 and Its D- and L-Peptide Analogues” (Molecules, 2019).
Values after ≈ are worked out from the molar mass of the structure shown. Non-standard residues stand in square brackets, D forms with d. Residues, ends and D or L forms follow the SMILES beside them. N(1-naphthylmethyl)Gly = O=C(O)CNCc1cccc2ccccc12; d1Nal = N[C@H](Cc1cccc2ccccc12)C(=O)O; N(4-MeBn)Gly = Cc1ccc(CNCC(=O)O)cc1; dNle = CCCC[C@@H](N)C(=O)O; NBuGly = CCCCNCC(=O)O; Nlys = NCCCCNCC(=O)O; Sar = CNCC(=O)O

Tests used:
red blood cell (RBC) = conditions: 0.5% RBC suspension in PBS, 1 h, 37 °C, read at 414 nm, normalized to mellitin and PBS, triplicates
Method: Briefly, 75 µL of peptide in PBS was mixed with 75 µL of a 0.5% red blood cell (RBC) suspension in PBS, and incubated for 1 h at 37 °C. The hemoglobin release was then measured at 414 nm and normalized, using mellitin as positive control and PBS as negative control. Experiments were done in triplicates.

[1] = tested on: Methicillin resistant Staphylococcus pseudintermedius, (C22963); assay type: cell-based; conditions: 18 h
[2] = tested on: Staphylococcus aureus (ATCC 29213); assay type: cell-based; conditions: ATCC 29213, 18 h
[3] = tested on: Pseudomonas aeruginosa (ATCC 27853); assay type: cell-based; conditions: ATCC 27853, 18 h
Method: To explore the antimicrobial activity of the library of peptides and peptidomimetics, they were tested against Acinetobacter baumannii, Corynebacterium auriscanis, Escherichia coli, Enterococcus faecalis, Enterococcus faecium, Klebsiella pneumonia, Proteus mirabilis, and Pseudomonas aeruginosa. Bacteria grown on agar plates for 18 h at 37 °C were diluted to ~1 × 10^8 CFU/mL in Mueller–Hinton broth (MHB). Two-fold serial dilutions of peptides and peptidomimetics in MHB II were inoculated with bacteria to achieve a final concentration of 5 × 10^5 CFU/mL in polypropylene 96 U-well microtiter plates (Almeco, Esbjerg, Denmark), followed by incubation at 37 °C in ambient air for 18 h. The MIC values were determined as the lowest concentration showing no visible bacterial growth. Experiments were performed twice (in technical triplicates) on two different days.

[4] = tested on: Methicillin sensitive Staphylococcus pseudintermedius (26916); assay type: cell-based; conditions: 18 h

Compound | HA, percentage of hemolysis at 150 µM (red blood cell (RBC)) [%] | MIC MRSP [1] [µg/mL] | MIC SA [2] [µg/mL] | MIC PA [3] [µg/mL] | MIC MSSP [4] [µg/mL]
CCCCN(CC(N)=O)C(=O)CN(CCCCN)C(=O)CN(Cc1cccc2ccccc12)C(=O)CN(CCCCN)C(=O)CN(Cc1ccc(C)cc1)C(=O)CN(Cc1cccc2ccccc12)C(=O)CN(CCCCN)C(=O)CN [compound 1] (H-G[Nlys][N(1-naphthylmethyl)Gly][N(4-MeBn)Gly][Nlys][N(1-naphthylmethyl)Gly][Nlys][NBuGly]-NH2; N-terminus assumed) | 42 | 4 (≈ 3.55 µM) | 16 (≈ 14.2 µM) | 32 (≈ 28.4 µM) | 4 (≈ 3.55 µM)
CCCCN(CC(N)=O)C(=O)CN(CCCCN)C(=O)CN(Cc1cccc2ccccc12)C(=O)CN(CCCCN)C(=O)CN(Cc1ccc(C)cc1)C(=O)CN(Cc1cccc2ccccc12)C(=O)CNC(=O)CNCCCCN [compound 2] (H-[Nlys]G[N(1-naphthylmethyl)Gly][N(4-MeBn)Gly][Nlys][N(1-naphthylmethyl)Gly][Nlys][NBuGly]-NH2; N-terminus assumed) | 48 | 8 (≈ 7.1 µM) | 16 (≈ 14.2 µM) | 64 (≈ 56.8 µM) | 16 (≈ 14.2 µM)
CCCCN(CC(N)=O)C(=O)CN(CCCCN)C(=O)CN(Cc1cccc2ccccc12)C(=O)CN(CCCCN)C(=O)CN(Cc1ccc(C)cc1)C(=O)CNC(=O)CN(CCCCN)C(=O)CNCCCCN [compound 3] (H-[Nlys][Nlys]G[N(4-MeBn)Gly][Nlys][N(1-naphthylmethyl)Gly][Nlys][NBuGly]-NH2; N-terminus assumed) | 56 | 64 (≈ 60.5 µM) | >64 | >64 | 64 (≈ 60.5 µM)
CCCCN(CC(N)=O)C(=O)CN(CCCCN)C(=O)CN(Cc1cccc2ccccc12)C(=O)CN(CCCCN)C(=O)CNC(=O)CN(Cc1cccc2ccccc12)C(=O)CN(CCCCN)C(=O)CNCCCCN [compound 4] (H-[Nlys][Nlys][N(1-naphthylmethyl)Gly]G[Nlys][N(1-naphthylmethyl)Gly][Nlys][NBuGly]-NH2; N-terminus assumed) | 40 | 32 (≈ 29.2 µM) | >64 | >64 | 64 (≈ 58.5 µM)
CCCCN(CC(N)=O)C(=O)CN(CCCCN)C(=O)CN(Cc1cccc2ccccc12)C(=O)CNC(=O)CN(Cc1ccc(C)cc1)C(=O)CN(Cc1cccc2ccccc12)C(=O)CN(CCCCN)C(=O)CNCCCCN [compound 5] (H-[Nlys][Nlys][N(1-naphthylmethyl)Gly][N(4-MeBn)Gly]G[N(1-naphthylmethyl)Gly][Nlys][NBuGly]-NH2; N-terminus assumed) | 25 | 4 (≈ 3.55 µM) | 32 (≈ 28.4 µM) | 16 (≈ 14.2 µM) | 4 (≈ 3.55 µM)
CCCCN(CC(N)=O)C(=O)CN(CCCCN)C(=O)CNC(=O)CN(CCCCN)C(=O)CN(Cc1ccc(C)cc1)C(=O)CN(Cc1cccc2ccccc12)C(=O)CN(CCCCN)C(=O)CNCCCCN [compound 6] (H-[Nlys][Nlys][N(1-naphthylmethyl)Gly][N(4-MeBn)Gly][Nlys]G[Nlys][NBuGly]-NH2; N-terminus assumed) | 6 | >64 | >64 | >64 | >64
CCCCN(CC(N)=O)C(=O)CNC(=O)CN(Cc1cccc2ccccc12)C(=O)CN(CCCCN)C(=O)CN(Cc1ccc(C)cc1)C(=O)CN(Cc1cccc2ccccc12)C(=O)CN(CCCCN)C(=O)CNCCCCN [compound 7] (H-[Nlys][Nlys][N(1-naphthylmethyl)Gly][N(4-MeBn)Gly][Nlys][N(1-naphthylmethyl)Gly]G[NBuGly]-NH2; N-terminus assumed) | 85 | 4 (≈ 3.55 µM) | 16 (≈ 14.2 µM) | 16 (≈ 14.2 µM) | 8 (≈ 7.1 µM)
Cc1ccc(CN(CC(=O)N(CCCCN)CC(=O)N(CC(=O)N(CCCCN)CC(=O)NCC(N)=O)Cc2cccc3ccccc23)C(=O)CN(Cc2cccc3ccccc23)C(=O)CN(CCCCN)C(=O)CNCCCCN)cc1 [compound 8] (H-[Nlys][Nlys][N(1-naphthylmethyl)Gly][N(4-MeBn)Gly][Nlys][N(1-naphthylmethyl)Gly][Nlys]G-NH2; N-terminus assumed) | 49 | 8 (≈ 7 µM) | 32 (≈ 28 µM) | 32 to 64 | 8 (≈ 7 µM)
CCCCN(CC(N)=O)C(=O)CN(CCCCN)C(=O)CN(Cc1cccc2ccccc12)C(=O)CN(C)C(=O)CN(Cc1ccc(C)cc1)C(=O)CN(Cc1cccc2ccccc12)C(=O)CN(CCCCN)C(=O)CNCCCCN [compound 9] (H-[Nlys][Nlys][N(1-naphthylmethyl)Gly][N(4-MeBn)Gly][Sar][N(1-naphthylmethyl)Gly][Nlys][NBuGly]-NH2; N-terminus assumed) | 16 | 4 (≈ 3.5 µM) | 16 (≈ 14 µM) | 32 (≈ 28 µM) | 4 (≈ 3.5 µM)
CCCCN(CC(N)=O)C(=O)CN(CCCCN)C(=O)CN(Cc1cccc2ccccc12)C(=O)CN(Cc1ccc(C)cc1)C(=O)CN(Cc1ccc(C)cc1)C(=O)CN(Cc1cccc2ccccc12)C(=O)CN(CCCCN)C(=O)CNCCCCN [compound 10] (H-[Nlys][Nlys][N(1-naphthylmethyl)Gly][N(4-MeBn)Gly][N(4-MeBn)Gly][N(1-naphthylmethyl)Gly][Nlys][NBuGly]-NH2; N-terminus assumed) | 69 | 8 (≈ 6.5 µM) | 8 (≈ 6.5 µM) | 16 (≈ 13 µM) | 8 (≈ 6.5 µM)
CCCCN(CC(N)=O)C(=O)CN(CCCCN)C(=O)CN(Cc1cccc2ccccc12)C(=O)CN(CCCCN)C(=O)[C@@H](Cc1ccccc1)NC(=O)[C@@H](Cc1cccc2ccccc12)NC(=O)[C@@H](CCCCN)NC(=O)[C@H](N)CCCCN [compound 14] (H-[dK][dK][d1Nal][dF][Nlys][N(1-naphthylmethyl)Gly][Nlys][NBuGly]-NH2; N-terminus assumed) |  | 4 (≈ 3.38 µM) | 16 (≈ 13.5 µM) | 64 (≈ 54 µM) | 4 (≈ 3.38 µM)
CCCC[C@@H](NC(=O)CN(CCCCN)C(=O)[C@@H](Cc1cccc2ccccc12)NC(=O)CN(CCCCN)C(=O)[C@@H](Cc1ccccc1)NC(=O)[C@@H](Cc1cccc2ccccc12)NC(=O)CN(CCCCN)C(=O)CNCCCCN)C(N)=O [compound 15] (H-[Nlys][Nlys][d1Nal][dF][Nlys][d1Nal][Nlys][dNle]-NH2; N-terminus assumed) |  | 4 (≈ 3.38 µM) | 32 (≈ 27 µM) | >64 | 4 (≈ 3.38 µM)
CCCCN(CC(N)=O)C(=O)[C@@H](CCCCN)NC(=O)CN(Cc1cccc2ccccc12)C(=O)[C@@H](CCCCN)NC(=O)CN(Cc1ccc(C)cc1)C(=O)CN(Cc1cccc2ccccc12)C(=O)[C@@H](CCCCN)NC(=O)[C@H](N)CCCCN [compound 16] (H-[dK][dK][N(1-naphthylmethyl)Gly][N(4-MeBn)Gly][dK][N(1-naphthylmethyl)Gly][dK][NBuGly]-NH2; N-terminus assumed) |  | 4 (≈ 3.34 µM) | 16 (≈ 13.3 µM) | 64 (≈ 53.4 µM) | 4 (≈ 3.34 µM)
